Experimental data taken from ChEMBL document CHEMBL1781934, “Syntheses and studies of amamistatin B analogs reveals that anticancer activity is relatively independent of stereochemistry, ester or amide linkage and select replacement of one of the metal chelating groups” (Bioorg Med Chem Lett, 2011).
In brackets after ≈: the same amount, converted by molar mass.

What was measured:
PC-3 [1] = assay: Growth inhibition of human PC3 cells at 20 uM after 72 hrs by crystal violet biomass reduction assay; assay type: functional; settings: PC-3, 72 h, read-out: GI
MCF7 [2] = assay: Anticancer activity against human MCF7 cells after 72 hrs by crystal violet biomass reduction assay; assay type: functional, cell-based; settings: MCF7, 72 h
PC-3 [3] = assay: Anticancer activity against human PC3 cells after 72 hrs by crystal violet biomass reduction assay; assay type: functional, cell-based; settings: PC-3, 72 h
MCF7 [4] = assay: Growth inhibition of human MCF7 cells at 20 uM after 72 hrs by crystal violet biomass reduction assay; assay type: functional; settings: MCF7, 72 h, read-out: GI
P388 = assay: Cytotoxicity against mouse P388 cells; assay type: functional, cell-based

Row | Compound | inhibition of growth at 20 µM (PC-3 [1]) | IC50 (MCF7 [2]) | IC50 (PC-3 [3]) | inhibition of growth at 20 µM (MCF7 [4]) | IC50 (P388)
1 | CCCCCCC[C@H](CC(=O)N[C@H]1CCCCN(O)C1=O)OC(=O)[C@H](CCCCN(O)C=O)NC(=O)c1nc(-c2ccccc2O)oc1C | 72% | 200 nM | 4000 nM | 94% | –
2 | CCCCCCC[C@@H](CC(=O)N[C@H]1CCCCN(O)C1=O)OC(=O)[C@H](CCCCN(O)C=O)NC(=O)c1nc(-c2ccccc2O)oc1C | 62% | 320 nM | 8000 nM | 91% | –
3 | CCCCCCC[C@H](CC(=O)N[C@H]1CCCCN(O)C1=O)NC(=O)[C@H](CCCCN(O)C=O)NC(=O)c1nc(-c2ccccc2O)oc1C | 72% | 550 nM | 9000 nM | 96% | –
4 | CCCCCCC[C@@H](CC(=O)N[C@H]1CCCCN(O)C1=O)NC(=O)[C@H](CCCCN(O)C=O)NC(=O)c1nc(-c2ccccc2O)oc1C | 68% | 2000 nM | 14000 nM | 95% | –
5 | CCCCCCC[C@H](CC(=O)N[C@H]1CCCCN(O)C1=O)OC(=O)[C@H](CCCCN(O)C=O)NC(=O)c1coc(-c2ccccc2O)n1 | 85% | 450 nM | 3750 nM | 91% | –
6 | CCCCCCC[C@@H](CC(=O)N[C@H]1CCCCN(O)C1=O)OC(=O)[C@H](CCCCN(O)C=O)NC(=O)c1coc(-c2ccccc2O)n1 | 60% | 800 nM | 9000 nM | 93% | –
7 | CCCCCCC[C@H](CC(=O)N[C@H]1CCCCN(O)C1=O)OC(=O)[C@H](CCCCN(O)C=O)NC(=O)[C@@H]1COC(c2ccccc2O)=N1 | 83% | 240 nM | 3000 nM | 87% | –
8 | CCCCCCC[C@@H](CC(=O)N[C@H]1CCCCN(O)C1=O)OC(=O)[C@H](CCCCN(O)C=O)NC(=O)[C@@H]1COC(c2ccccc2O)=N1 | 79% | 500 nM | 3000 nM | 89% | –
9 | CCCCCCC[C@H](CC(=O)N[C@H]1CCCCN(O)C1=O)OC(=O)[C@H](CCCCN(O)C=O)NC(=O)[C@H]1COC(c2ccccc2O)=N1 | 90% | 320 nM | 2000 nM | 92% | –
10 | CCCCCCC[C@@H](CC(=O)N[C@H]1CCCCN(O)C1=O)OC(=O)[C@H](CCCCN(O)C=O)NC(=O)[C@H]1COC(c2ccccc2O)=N1 | 79% | 3000 nM | 7500 nM | 90% | –
11 | CCCCCCC[C@H](CC(=O)N[C@H]1CCCCN(O)C1=O)OC(=O)[C@H](CCCCN(O)C=O)NC(=O)c1cccc(O)c1O | 40% | 6000 nM | – | 86% | –
12 | CCCCCCC[C@@H](CC(=O)N[C@H]1CCCCN(O)C1=O)OC(=O)[C@H](CCCCN(O)C=O)NC(=O)c1cccc(O)c1O | 63% | 1000 nM | 7000 nM | 81% | –
13 | CCCCCCC[C@H](OC(=O)[C@@H](CCCCN(O)C=O)NC(=O)c1nc(-c2ccccc2O)oc1C)C(C)(C)C(=O)N[C@H]1CCCCN(O)C1=O | – | – | – | – | 0.016 µg/mL (≈ 0.0224 µM)
14 | CCCCCCC[C@H](OC(=O)[C@@H](CCCCN(O)C=O)NC(=O)c1nc(-c2cc(OC)ccc2O)oc1C)C(C)(C)C(=O)N[C@H]1CCCCN(O)C1=O [AMAMISTATIN A] | – | – | – | – | 0.015 µg/mL (≈ 0.0201 µM)
